According to US20090148540A1, “Antibacterial composition and method of production” (MI HOPE INCORPORATED, priority 2007, published 2009):

Test system: MRSA
Test: Anti-MRSA activity on dried surface areas swabbed with MRSA broth, surveyed with MRSA selective agar plates
Format: cell-based, Staphylococcus aureus
Settings: surface areas previously swabbed with MRSA broth; treated areas dried 30 minutes; MEC DD Checker Plates; copper citrate solution (22 volts, 2.8 amps, 2 hours) diluted 1 to 10 in water
Method: In one protocol, the diluted copper citrate solution was applied to several dried surface areas that had been previously swabbed with an MRSA containing broth solution. The treated areas were allowed to dry over the next 30 minutes. An MRSA selective agar medium was then used to survey the areas for residual MRSA (MEC DD Checker Plates obtained from Denka Seiken, Inc., Japan). For control, similarly contaminated areas were either left untreated or exposed to the original starting 5% citric acid solution.

In the case of `O=C(O)CC(O)(CC(=O)O)C(=O)O` [5% citric acid solution, citric acid], the “residual MRSA growth on MRSA selective agar medium from treated surface areas” value is reported as “numerous MRSA colonies developed”.
